Data set [1] relates to Panicum maximum (guineagrass, PANMA). In words: greenhouse test of rainfastness of glyphosate formulations (Example 4). In kind it is in vivo. Particulars: 1.68 kg a.e./ha, formulation 18.4% glyphosate a.e., 7% cocoamine quat 2EO, 10.2% nonionic surfactant. The method, then: (§1) Comparative herbicidal activity with and without simulated rain was determined in greenhouse and field tests. For greenhouse tests, seeds or propagules of selected species were planted in 10.2 cm square pots of soil with added fertilizer. Temperature and relative humidity were allowed to fluctuate within limits defined for each test described in the following Examples. Plants were allowed to grow until the desired growth stage or size (defined for each test) for spraying. Pots were selected for uniformity before treatment and three replicate pots were assigned to each treatment. Spray solutions were prepared by dilution or dissolution of concentrate herbicide formulations in water. When desired to test "tank mix" application of surfactant compositions, these were added to the spray solution at the required concentration. Spraying was performed with a device which simulates agricultural field spraying equipment, delivering a fine spray at a pressure of about 207 kilopascals. Speed of travel of the spray device over the plants was adjusted to give the desired spray volume (defined for each test). For logistical reasons, all three replicates of each treatment were sprayed together. "Rain" treatments were applied by repeated passage of a coarse spray of water over the plants at some desired period of time after herbicide spraying. The amount and duration of "rain" were noted. After spraying and "rain" treatment, the plants were returned to the greenhouse. Herbicidal efficacy was evaluated by visual assessment at one or more selected time periods after treatment and recorded as "percent control" on an arbitrary scale by comparison with untreated plants. On this scale 0 means no visible effect and 100 means death of all plants. In the Examples, percent control values given are the means of three replicates.
Aqueous concentrate formulations of the isopropylamine salt of glyphosate were prepared at a glyphosate a.e. loading of 18.4% (equivalent to about 200 g a.e./liter). All contained 7% cocoamine quat 2EO and 10.2% nonionic surfactant. Formulations of the present invention contained as the nonionic one of several secondary alcohol ethoxylates; other formulations were made containing nonionics such as Silwet L-77, 2,4,7,9-tetramethyl-5-decyne-4,7-diol 10EO, nonylphenol 8EO, 10EO and 12EO and C12-15 primary alcohol 7EO, 9EO and 12EO. These formulations were tested for rainfastness in a greenhouse test.
The test species was Panicum maximum (guineagrass, PANMA). All glyphosate formulations were applied at 1.68 kg a.e./ha (1.5 lb a.e./acre) in a spray volume of 185 l/ha (20 gallons/acre). Commercial Roundup herbicide was included as a standard. Simulated rain was applied in the amount of 6 mm over a period of 15 minutes, beginning 1 hour after glyphosate treatment.

Data set [2] concerns Elymus repens (quackgrass, AGRRE). In words: greenhouse test of rainfastness of glyphosate formulations (Example 5). The following applies: formulation 31% glyphosate a.e., 7.5% cocoamine quat 2EO, 8.6% nonionic surfactant. In kind it is in vivo. The method, then: as §1
Aqueous concentrate formulations of the isopropylamine salt of glyphosate were prepared at a glyphosate a.e. loading of 31% (equivalent to about 360 g a.e./liter). All contained 7.5% cocoamine quat 2EO and 8.6% nonionic surfactant. Formulations of the present invention contained as the nonionic C11-15 secondary alcohol 9EO or C12 branched secondary alcohol 10EO; for comparison, other formulations were made containing nonionics disclosed as rainfastness aids in the prior art such as 2,4,7,9-tetramethyl-5-decyne-4,7-diol 10EO or nonylphenol 8EO. These formulations were tested for rainfastness in a greenhouse test.
The test species was Elymus repens (quackgrass, AGRRE). All glyphosate formulations were applied at both 0.84 and 1.68 kg a.e./ha (0.75 and 1.5 lb a.e./acre) in a spray volume of 20 gallons/acre (187 l/ha. Commercial Roundup herbicide was included as a standard. Simulated rain was applied in the amount of 6 mm over a period of 15 minutes, beginning 1 hour after glyphosate treatment. Data on percent inhibition without and with "rain" are presented in Table 6. Table 6

The test system of the next data set is barley cv. Pennco. Description: short-term whole plant assay, barley regrowth after glyphosate treatment and trimming (Examples 7-8). The following applies: T/Am 5 0, S/Al 9 0 % w/v, 7 days after treatment. The data set is classed as in vivo. The text has this:
In Examples 7 and 8, a short-term whole plant assay was used to evaluate relative efficacy of aqueous glyphosate compositions containing tallowamine 5EO and C11-15 secondary alcohol 9EO in different concentrations and proportions relative to one another.
Equal volumes of uniformly sized seeds (20-25 in number) of barley cv. Pennco were sown in a growing medium consisting of a 3:2:1 sand/soil/peat mixture in 4 inch square plastic pots. Pots were placed in a controlled environment growth chamber providing a 14 hour photoperiod, day and night temperatures of 78°F and 66°F respectively, and a relative humidity in the range from 30% to 50%. Light was provided by a combination of metal halide and sodium vapor lamps. All pots were bottom watered at 1200 hr on the first day, resulting in rapid saturation of the growing medium. Seedling emergence occurred on the third and fourth days. On the seventh day, all pots were fertilized by bottom watering with a Peters 20-20-20 fertilizer containing 475 ppm soluble nitrogen.
On the eighth day, pots were sorted into 6 replicate blocks according to plant size. Treatments, including no-treatment controls, were randomly assigned within each block, one treatment per pot.
Plants were treated with glyphosate compositions in rapid succession between 0830 hr and 0900 hr on the ninth day, when average plant height was 13-15 cm and the second leaf was just beginning to elongate. Compositions were applied using a calibrated single-nozzle track sprayer delivering 187 l/ha through a Teejet 8001E nozzle at 276 kilopascals. Plants were removed from the growth chamber immediately before treatment and returned to the same growth chamber immediately after treatment. Pots were spatially arranged in a randomized complete block experimental design. At 6 hours after treatment plants in all pots were trimmed by cutting to 20 mm above the top edge of the pot. This removed approximately 90% of the barley leaf area. Pots were bottom watered once daily for the remainder of the study. Data collection took place on the sixteenth day, 7 days after treatment.
Average height of barley regrowth in each pot was measured to the nearest 5 mm increment, from the earlier cutting height 20 mm above the edge of the pot. All plants in each pot were then cut at 20 mm above the edge of the pot and total fresh weight was recorded.
All compositions in this Example contained glyphosate as the isopropylamine salt at a concentration calculated to deliver 0.42 kg a.e./ha. Polyoxyethylene tallowamine 5EO (T/Am 5) concentration was varied independently of C11-15 secondary alcohol 9EO (S/Al 9) concentration as will be clear from the tables below. […]

The nature of data set [3]: cloud point of aqueous concentrate glyphosate formulations (Examples 2 and 3). The data set is classed as physicochemical. The following applies: 31% glyphosate a.e. as isopropylamine salt. The method, then:
Aqueous concentrate formulations of the isopropylamine salt of glyphosate were prepared at a glyphosate a.e. loading of 31% (equivalent to about 360 g a.e./liter). All contained 3.5% cocoamine quat 2EO. Secondary alcohol ethoxylates of the invention were included at a range of levels and cloud point of the formulation was determined. To measure cloud point, a sample of each formulation in a test tube was heated in a water bath until it became cloudy. The test tube was then removed from the water bath and the sample stirred with a thermometer until it became clear. The temperature at which the sample became clear was recorded as the cloud point of the formulation.
Aqueous concentrate formulations of the isopropylamine salt of glyphosate were prepared at the same glyphosate a.e. loading as in Example 2, but containing higher levels of cocoamine quat 2EO. Secondary alcohol ethoxylates of the invention were included at a range of levels and cloud point of the formulation was determined by the same procedure as in Example 2.

Where [4] appears, read: Rain 6 mm over 15 minutes, 1 hour after treatment.
The mark [5] stands for this setting: 0.84 kg a.e./ha, Rain 6 mm over 15 minutes, 1 hour after treatment.
Where [6] appears, read: 1.68 kg a.e./ha, Rain 6 mm over 15 minutes, 1 hour after treatment.
[7] abbreviates: averaged over glyphosate 0.07, 0.14 and 0.28 kg a.e./ha.
The mark [8] stands for this setting: 4% secondary alcohol, 3.5% cocoamine quat 2EO.
Where [9] appears, read: 5% secondary alcohol, 3.5% cocoamine quat 2EO.
The mark [10] stands for this setting: 5% secondary alcohol, 5% cocoamine quat 2EO.
[11] abbreviates: 6% secondary alcohol, 3.5% cocoamine quat 2EO.
Setting [12] is: 6% secondary alcohol, 5% cocoamine quat 2EO.
[13] abbreviates: 7% secondary alcohol, 3.5% cocoamine quat 2EO.
[14] abbreviates: 7% secondary alcohol, 5% cocoamine quat 2EO.
Setting [15] is: 8% secondary alcohol, 5% cocoamine quat 2EO.

For the compound “2,4,7,9-tetramethyl-5-decyne-4,7-diol 10EO [Adjuvant 2]”, the “Percent inhibition of guineagrass 15 DAT” value was found to be 98% in data set [1] (No rain) and 94% in data set [1] (setting [4]). Besides, the “Percent inhibition of quackgrass 28 DAT” value in data set [2] (0.84 kg a.e./ha, No rain) amounted to 94%; in data set [2] (setting [5]), 78%; in data set [2] (1.68 kg a.e./ha, No rain), 98%; in data set [2] (setting [6]) it was 94%.

On to `O=C(O)CNCP(=O)(O)O` [glyphosate, N-phosphonomethylglycine], for which, in the data set on barley cv. Pennco (setting [7]), the “Mean fresh weight of regrowth” value came out at 2.83 g and the “Mean height of regrowth” value is 171 mm. Besides, in the data set with barley cv. Pennco (glyphosate 0.42 kg a.e./ha), the “Mean fresh weight of regrowth” value was found to be 1.92 g and the “Mean height of regrowth” value was 148 mm.

Consider “C12 branched secondary alcohol 6EO [C12 branched 6EO]”, for which the results for the “Percent inhibition of guineagrass 15 DAT” value in data set [1] (No rain) and in data set [1] (setting [4]) were 100% and 66%, respectively. In addition, the Cloud points was above 95 °C in data set [3] (setting [8]); above 95 °C in data set [3] (setting [9]); above 95 °C in data set [3] (setting [10]); below 25 °C in data set [3] (setting [11]); below 25 °C in data set [3] (setting [12]); below 25 °C in data set [3] (setting [13]). For the same compound, the Cloud points in data set [3] (setting [14]) and in data set [3] (setting [15]) was below 25 °C each time.

Turning to “C12 branched secondary alcohol 10EO [C12 branched 10EO]”, the “Percent inhibition of guineagrass 15 DAT” value in data set [1] (No rain) is 100%; in data set [1] (setting [4]), 98%. The “Percent inhibition of quackgrass 28 DAT” value was determined as 94% in data set [2] (0.84 kg a.e./ha, No rain); 84% in data set [2] (setting [5]); 100% in data set [2] (1.68 kg a.e./ha, No rain); 88% in data set [2] (setting [6]). Besides, the Cloud points in data set [3] (setting [8]) is above 95 °C; in data set [3] (setting [9]), 80 °C; in data set [3] (setting [10]), 80 °C; in data set [3] (setting [11]), 72 °C; in data set [3] (setting [12]), 68 °C; in data set [3] (setting [13]) it was 65 °C. Further, the results for the Cloud points in data set [3] (setting [14]) and in data set [3] (setting [15]) were 65 °C and 61 °C, respectively.

Turning to nonylphenol 8EO, the “Percent inhibition of guineagrass 15 DAT” value was determined as 100% in data set [1] (No rain) and 97% in data set [1] (setting [4]). Besides, the “Percent inhibition of quackgrass 28 DAT” value in data set [2] (0.84 kg a.e./ha, No rain) is recorded as 97%; in data set [2] (setting [5]), 83%; in data set [2] (1.68 kg a.e./ha, No rain), 98%; in data set [2] (setting [6]), 79%.

Consider nonylphenol 10EO, for which the figures for the “Percent inhibition of guineagrass 15 DAT” value in data set [1] (No rain) and in data set [1] (setting [4]) were 100% and 81%, respectively.

Turning to nonylphenol 12EO, the “Percent inhibition of guineagrass 15 DAT” value in data set [1] (No rain) was determined as 100%; in data set [1] (setting [4]), 63%.

The values above are taken from patent EP0734206B1, “SURFACTANTS PROVIDING ENHANCED EFFICACY AND/OR RAINFASTNESS TO PESTICIDE FORMULATIONS” (MONSANTO COMPANY, priority 1993, dated 1995).
